pIC50: −log10 of the molar value.
Columns and labels:
[1] = tested on: Soluble Abeta40 levels in the rat brain and CSF; test: Test 5: In Vivo Inhibitory Activity (Abeta lowering in rat brain and CSF); settings: male Sprague-Dawley rats, oral gavage, 10 micromoles per kilogram, 4 hours prior to sacrifice; n.s.=not statistically significant
Description: Test 5: In Vivo Inhibitory Activity of Example Compounds
Male Sprague-Dawley rats, 220-280 g weight, (Charles River, France) were dosed by oral gavage with vehicle alone (0.1% Tween80, 0.5% methylcellulose in water) or with compound suspended in vehicle at a dose of 10 micromoles compound per kilogram body weight, 4 hours prior to sacrifice. The 4 hour timepoint was selected in order to compare the activity of compounds that have sufficient pharmacokinetic and biodistribution properties to reduce total brain Abeta within approximately three half-lives of the rat brain Abeta40 peptide.
Immediately prior to sacrifice, anaesthetized rat (spontaneous inhalation, 2-5% Isoflurane and air) were fixed in a stereotaxic apparatus on a raised platform, with anesthesia maintained though a nose cone. The angle of the head was tilted downward, perpendicular to the body, and a hypodermic needle lowered through the skin behind the occipital ridge, into the Cisterna magna. Cerebrospinal fluid (CSF) was withdrawn (˜50-100 μL), dispensed into tubes (protein Lo-bind Eppendorf tubes for Abeta40 analysis, normal Eppendorph tubes for compound analysis), frozen on dry ice and stored at −80° C. until analysis. Rats were then immediately decapitated under anesthesia, trunk blood collected for analysis of compound levels and the brain retrieved. One half-forebrain was dissected by removing the cerebellum and olfactory bulbs, frozen in three pieces on a metal plate pre-cooled on frozen CO2 and stored in tubes at −80° C. until analysis for Abeta40. For the other half-brain, olfactory bulbs were discarded and a sagittal slice taken from the medial aspect, weighing ˜200-400 mg, placed in glass HPLC tubes and frozen on dry ice until analysis for compound levels.
Soluble Abeta40 levels in the rat brain and CSF were quantified using a Meso Scale Discovery (MSD) 96-well MULTI-ARRAY human/rodent (4G8) Abeta40 Ultrasensitive Assay (#K110FTE-3, Meso Scale Discovery, Gaithersburg, USA). Forebrain sample homogenates were prepared by sonication in 9 volumes (w/v) of ice cold TBA. Fifty μL of 2% TX-100 in TBS-complete was added to 50 μL aliquots of the homogenate to reach a final concentration of 1% TX-100 in a 1:20 dilution. Samples were incubated on ice for 15 min interrupted with 3 short vortexing steps, then centrifuged (100 000×g, 4° C., 15 min), and 50 μL of supernatant collected. This was further diluted 1:5 with 3% Blocker A solution from the MSD kit to a final dilution of 1:100 and applied to the MSD plate. CSF samples containing blood were excluded. All other CSF samples were diluted with 1% Blocker A solution (from manufacturers kit) to reach a 1:20 CSF dilution. Calibration curves were prepared in 1% Blocker A solution spiked with synthetic Abeta1-40 peptide. Samples and calibration standards were applied in duplicate at a volume of 25 μL per well. Abeta40 concentrations of samples were estimated from the standard curve using SOFTmax PRO4.0.

[2] = Test 4: Inhibition of Cellular Release of Amyloid Peptide 1-40; format: cell-based, Chinese hamster; settings: Cricetulus griseus; CHO cells with human APP, 24 hours with compound; read-out: Test 4 Amyloid-β1-40 release IC50
Description: The cells are plated at a density of 8000 cells/well into 96-well microtiter plates and cultivated for 24 hours in DMEM cell culture medium containing 10% FCS. The test compound is added to the cells at various concentrations, and the cells are cultivated for 24 hours in the presence of the test compound. […] The potency of the compound is calculated from the percentage of inhibition of amyloid peptide release as a function of the test compound concentration.

Human BACE-2 = Human BACE-2 (Homo sapiens (Human), UniProt Q9Y5Z0); test: Test 2: Inhibition of Human BACE-2; format: biochemical; settings: recombinant BACE-2, pH 4.5, 1 hour preincubation
Description: Test 2: Inhibition of Human BACE-2
(§1) Recombinant BACE-2 (extracellular domain, expressed in baculovirus and purified using standard methods) at 0.1 to 1 nM concentrations is incubated with the test compound at various concentrations for 1 hour at room temperature in 100 mM acetate buffer, pH 4.5, containing 0.1% CHAPS. Activity was measured using a final concentration of 3 μM of the fluorescence-quenched substrate Q-C(HSO3)-Ile-Asp-Leu-Ala-Val-Leu-Asp-HN—CH2—CH2-Mca, where Q=2-nitro-5-amino benzoic acid and Mca=7-methoxy-4-coumarinyl acetic acid. Catalytic turnover was monitored in a Spectramax Gemini fluorescence plate reader (Molecular Devices) in black 96-well microplates using excitation/emission wavelength of 325 nm and 400 nm, respectively. Fluorescence increase was followed for 15 min, in 1 minute's intervals. The fluorescence/time slopes were calculated from duplicate wells and from wells without inhibitor and the IC50 values were calculated using a logistic 4-parameter model.

Human BACE-1 = Human BACE-1 (Homo sapiens (Human), UniProt P56817); test: Test 1: Inhibition of Human BACE-1; format: biochemical; settings: recombinant BACE-1, pH 4.5, 1 hour preincubation
Description: Test 1: Inhibition of Human BACE-1
as §1, with “BACE-1” for “BACE-2”

Sequence of Human BACE-2 (Q9Y5Z0 63-473): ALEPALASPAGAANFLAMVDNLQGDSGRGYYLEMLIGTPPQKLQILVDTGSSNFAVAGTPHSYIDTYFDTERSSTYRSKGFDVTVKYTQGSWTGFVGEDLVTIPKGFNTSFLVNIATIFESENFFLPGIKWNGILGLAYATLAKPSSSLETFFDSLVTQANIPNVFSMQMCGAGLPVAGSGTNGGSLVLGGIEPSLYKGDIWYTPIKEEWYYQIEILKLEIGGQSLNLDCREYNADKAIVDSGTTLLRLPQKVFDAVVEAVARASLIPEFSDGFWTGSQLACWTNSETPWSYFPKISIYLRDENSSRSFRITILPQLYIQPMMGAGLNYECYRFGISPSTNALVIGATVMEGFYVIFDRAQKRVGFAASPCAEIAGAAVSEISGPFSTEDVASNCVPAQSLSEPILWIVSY
Sequence of Human BACE-1 (P56817 46-457): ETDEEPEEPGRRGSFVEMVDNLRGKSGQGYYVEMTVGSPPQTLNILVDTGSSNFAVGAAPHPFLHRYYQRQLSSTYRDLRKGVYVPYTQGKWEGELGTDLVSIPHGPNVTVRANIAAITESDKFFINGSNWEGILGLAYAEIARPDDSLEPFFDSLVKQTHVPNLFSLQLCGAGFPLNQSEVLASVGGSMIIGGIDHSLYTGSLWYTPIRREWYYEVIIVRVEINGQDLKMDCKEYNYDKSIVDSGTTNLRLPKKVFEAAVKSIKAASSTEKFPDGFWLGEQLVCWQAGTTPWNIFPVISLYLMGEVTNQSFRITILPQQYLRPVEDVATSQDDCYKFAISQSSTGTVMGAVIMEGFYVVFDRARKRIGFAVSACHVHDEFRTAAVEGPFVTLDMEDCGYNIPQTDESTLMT

pIC50 [2] | pIC50 (Human BACE-2) | pIC50 (Human BACE-1) | SMILES | Abeta lowering in rat CSF [1] | Abeta lowering in rat forebrain [1]
– | – | – | CC1(C)OC(N)=N[C@](C)(c2nc(NC(=O)c3ncc(C#N)cc3Cl)ccc2F)C1(F)F [Example 3, 3-Chloro-5-cyano-pyridine-2-carboxylic acid [6-((R)-2-amino-5,5-difluoro-4,6,6-trimethyl-5,6-dihydro-4H-[1,3]oxazin-4-yl)-5-fluoro-pyridin-2-yl]-amide] | −35.3% | −20.0%
8.10 | 7.15 | 7.92 | C[C@]1(c2nc(NC(=O)c3ncc(C#N)cc3Cl)ccc2F)N=C(N)OCC1(F)F [Example 2, 3-Chloro-5-cyano-pyridine-2-carboxylic acid [6-((R)-2-amino-5,5-difluoro-4-methyl-5,6-dihydro-4H-[1,3]oxazin-4-yl)-5-fluoro-pyridin-2-yl]-amide] | −70.7% | −67.1%
– | – | – | CC1(c2cc(NC(=O)c3nn(C(F)F)cc3Cl)ccc2F)N=C(N)OCC1(F)F (stereo not drawn) [71 WO 2011/069934 A1, reference compound] | −30.4% | 5.6% (n.s.)
– | – | – | C[C@]1(c2nc(NC(=O)c3ncc(C(F)(F)F)cc3Cl)ccc2F)N=C(N)OCC1(F)F [Example 7, 3-Chloro-5-trifluoromethyl-pyridine-2-carboxylic acid [6-((R)-2-amino-5,5-difluoro-4-methyl-5,6-dihydro-4H-[1,3]oxazin-4-yl)-5-fluoro-pyridin-2-yl]-amide] | −67.9% | −63.6%
7.24 | 7.57 | 6.96 | C[C@]1(c2nc(NC(=O)c3ncc(OCF)cc3Cl)ccc2F)N=C(N)OCC1(F)F [Example 26, 3-Chloro-5-fluoromethoxy-pyridine-2-carboxylic acid [6-((R)-2-amino-5,5-difluoro-4-methyl-5,6-dihydro-4H-[1,3]oxazin-4-yl)-5-fluoro-pyridin-2-yl]-amide] | – | –
6.51 | < 5.00 | 5.92 | C[C@]1(c2nc(NC(=O)c3ncc(OCCCF)nc3N)ccc2F)N=C(N)OCC1(F)F [Example 12, 3-Amino-5-(3-fluoro-propoxy)-pyrazine-2-carboxylic acid [6-((R)-2-amino-5,5-difluoro-4-methyl-5,6-dihydro-4H-[1,3]oxazin-4-yl)-5-fluoro-pyridin-2-yl]-amide] | – | –
5.54 | < 5.00 | 5.06 | C[C@]1(c2nc(NC(=O)c3ncc(OCCCl)nc3N)ccc2F)N=C(N)OCC1(F)F [Example 23, 3-Amino-5-(2-chloro-ethoxy)-pyrazine-2-carboxylic acid [6-((R)-2-amino-5,5-difluoro-4-methyl-5,6-dihydro-4H-[1,3]oxazin-4-yl)-5-fluoro-pyridin-2-yl]-amide] | – | –
– | – | – | CC1(c2cc(NC(=O)c3ncc(C#N)cc3Cl)ccc2F)N=C(N)OCC1(F)F (stereo not drawn) [39 WO 2011/069934 A1, reference compound] | −8.2% (n.s.) | −1.4% (n.s.)
7.06 | 7.02 | 6.44 | C[C@]1(c2nc(NC(=O)c3ncccc3Cl)ccc2F)N=C(N)OCC1(F)F [Example 20, 3-Chloro-pyridine-2-carboxylic acid [6-((R)-2-amino-5,5-difluoro-4-methyl-5,6-dihydro-4H-[1,3]oxazin-4-yl)-5-fluoro-pyridin-2-yl]-amide] | – | –
5.19 | < 5.00 | < 5.00 | CC(F)(F)c1nc(N)c(C(=O)Nc2ccc(F)c([C@@]3(C)N=C(N)OCC3(F)F)n2)nc1Cl [Example 34, 3-Amino-6-chloro-5-(1,1-difluoro-ethyl)-pyrazine-2-carboxylic acid [6-((R)-2-amino-5,5-difluoro-4-methyl-5,6-dihydro-4H-[1,3]oxazin-4-yl)-5-fluoro-pyridin-2-yl]-amide] | – | –
6.51 | < 5.00 | 7.19 | CC(F)(F)c1cnc(C(=O)Nc2ccc(F)c([C@@]3(C)N=C(N)OCC3(F)F)n2)c(N)n1 [Example 37, 3-Amino-5-(1,1-difluoro-ethyl)-pyrazine-2-carboxylic acid [6-((R)-2-amino-5,5-difluoro-4-methyl-5,6-dihydro-4H-[1,3]oxazin-4-yl)-5-fluoro-pyridin-2-yl]-amide] | – | –
6.32 | < 5.00 | 6.24 | C[C@]1(c2nc(NC(=O)c3ncc(OCCF)nc3N)ccc2F)N=C(N)OCC1(F)F [Example 25, 3-Amino-5-(2-fluoro-ethoxy)-pyrazine-2-carboxylic acid [6-((R)-2-amino-5,5-difluoro-4-methyl-5,6-dihydro-4H-[1,3]oxazin-4-yl)-5-fluoro-pyridin-2-yl]-amide] | – | –
7.92 | 8.40 | 7.74 | C[C@]1(c2nc(NC(=O)c3ncc(Cl)cc3Cl)ccc2F)N=C(N)OCC1(F)F [Example 9, 3,5-Dichloro-pyridine-2-carboxylic acid [6-((R)-2-amino-5,5-difluoro-4-methyl-5,6-dihydro-4H-[1,3]oxazin-4-yl)-5-fluoro-pyridin-2-yl]-amide] | – | –
8.15 | 7.18 | 7.92 | Cc1cc(C#N)cnc1C(=O)Nc1ccc(F)c([C@@]2(C)N=C(N)OCC2(F)F)n1 [Example 1, 5-Cyano-3-methyl-pyridine-2-carboxylic acid [6-((R)-2-amino-5,5-difluoro-4-methyl-5,6-dihydro-4H-[1,3]oxazin-4-yl)-5-fluoro-pyridin-2-yl]-amide] | – | –
6.74 | 6.31 | 6.27 | C[C@]1(c2nc(NC(=O)c3nccnc3N)ccc2F)N=C(N)OCC1(F)F [Example 31, 3-Amino-pyrazine-2-carboxylic acid [6-((R)-2-amino-5,5-difluoro-4-methyl-5,6-dihydro-4H-[1,3]oxazin-4-yl)-5-fluoro-pyridin-2-yl]-amide] | – | –
– | – | – | CC1(C)OC(N)=NC(C)(c2cc(NC(=O)c3ncc(C#N)cc3Cl)ccc2F)C1(F)F (stereo not drawn) [22 WO 2011/069934 A1, reference compound] | −17.9% | −7.8% (n.s.)
7.72 | 6.03 | 7.22 | C[C@]1(c2nc(NC(=O)c3ncc(C#CCO)cc3Cl)ccc2F)N=C(N)OCC1(F)F [Example 32, 3-Chloro-5-(3-hydroxy-prop-1-ynyl)-pyridine-2-carboxylic acid [6-((R)-2-amino-5,5-difluoro-4-methyl-5,6-dihydro-4H-[1,3]oxazin-4-yl)-5-fluoro-pyridin-2-yl]-amide] | – | –
